pEC50: −log10 of the molar value.
Columns and labels:
Type in all cases: cell-based
[1] = Cell Titer-Glo Cell Viability Assay, genotype 1a cells; conditions: human, En5-3/Htat2ANeo (HCV genotype 1a replicon) cells, HCV-1a assays, read-out: Cytotoxicity* (CC50)
Protocol: (§1) Cell Seeding and Compound Treatment: Huh-Luc-Neo (Genotype 1b) or En5-3/Htat2ANeo (Genotype 1a) cells are seeded at 5000-7000/well in an opaque-walled 96 plate with Growth Medium (DMEM phenol red free+PS+2 mM glutamine; 100 ul/well). The compounds to be tested for inhibition of cell viability are added to the experimental wells so as to generate a dose response curve (8-9 concentrations, 10 μl/well at 10× assay concentration) and the cells are then incubated (5% CO2, 37° C.) for 72 h.
(§2) Reagent Preparation and Assay: After completion of the incubation period the cell viability measurements are made using the Cell Titre Glo Assay (Promega) according to the manufacturer's recommended protocol. Briefly, the CellTiter-Glo Buffer is thawed and equilibrated to room temperature prior to use. The lyophilized CellTiter-Glo Substrate is also equilibrated to room temperature prior to use. 10 ml of CellTiter-Glo Buffer is then transferred to 1 vial of CellTiter-Glo Substrate and mixed gently with a Vortex. 100 μl of CellTiter-Glo Assay reagent (CellTiter-Glo Buffer+CellTiter-Glo Substrate Mixture) is added to each well. The well contents are mixed for 5 min. on an orbital shaker at room temperature to induce cell lysis and the luminescence is then measured using a luminometer.

[2] = tested on: HCV genotype 1a replicon (En5-3/Htat2ANeo cells); assay: HCV-1a Replicon RNA (Taqman) inhibition assay; conditions: Hepatitis C virus, 72 h
[3] = Cell Titer-Glo Cell Viability Assay, genotype 1b cells; conditions: human, Huh-Luc-Neo (HCV genotype 1b replicon) cells, HCV genotype 1b assays, read-out: Cytotoxicity* (CC50)
Protocol: as §1, §2

[4] = tested on: HCV genotype 1b replicon (Huh-Luc-Neo cells); assay: HCV Replicon Luciferase Assay; conditions: Hepatitis C virus, Huh-Luc-Neo cells, genotype 1b, 72 h, read-out: HCV-1b Replicon Inhibition*, Luciferase (EC50)
[5] = tested on: HCV genotype 1b replicon (Huh-Luc-Neo cells); assay: HCV Replicon RNA (Taqman) Assay, genotype 1b; conditions: Hepatitis C virus, Huh-Luc-Neo cells, genotype 1b, HCV RNA, 72 h, read-out: HCV-1b Replicon Inhibition*, Taqman (EC50)

COC(=O)C1CCCN1C(=O)N[C@@H](C(=O)N1CCOC[C@H]1C(=O)Nc1ccc(C#Cc2cn(CCC#N)nc2-c2cc(Cl)ccc2O)cc1)c1ccccc1 (stereo partly shown) [Compound 14]
CC50 at 72 h [1]: > 33.3 µM
pEC50 [2]: > 6.00

N#CCCn1cc(C#Cc2ccc(NC(=O)[C@@H]3COCCN3C(=O)[C@H](NC(=O)N3CCC3)c3ccccc3)cc2)c(-c2cc(Cl)ccc2O)n1 [Compound 15]
CC50 at 72 h [1]: > 33.3 µM
pEC50 [2]: > 6.00

Cn1nccc1C(=O)N[C@@H](C(=O)N1CCOC[C@H]1C(=O)Nc1ccc(C#Cc2cn(CCC#N)nc2-c2cc(Cl)ccc2O)cc1)c1ccccc1 [Compound 1]
CC50 at 72 h [1]: > 33.3 µM
pEC50 [2]: > 6.00

N#CCCn1cc(C#Cc2ccc(NC(=O)[C@@H]3COCCN3C(=O)[C@H](NC(=O)c3ccccc3)c3ccccc3)cc2)c(-c2cc(Cl)ccc2O)n1 [Compound 13]
CC50 at 72 h [1]: > 33.3 µM
pEC50 [2]: > 6.00

CC(C)n1cc(C#Cc2ccc(NC(=O)[C@@H]3COCCN3C(=O)[C@H](NC(=O)c3ccccc3)c3ccccc3)cc2)c(-c2cc(Cl)ccc2O)n1 [Compound 6]
CC50 at 72 h [1]: > 33.3 µM
pEC50 [2]: > 6.00

CN(C)CCn1cc(C#Cc2ccc(NC(=O)[C@@H]3COCCN3C(=O)[C@H](NC(=O)NOC(C)(C)C)c3ccccc3)cc2)c(-c2cc(Cl)ccc2O)n1 [Example 18]
CC50 at 72 h [1]: 1 to 10 µM
pEC50 [2]: 5.00 to 6.00

Cn1cc(C#Cc2ccc(NC(=O)[C@@H]3COCCN3C(=O)[C@H](NC(=O)c3cccs3)c3ccccc3)cc2)c(-c2cc(Cl)ccc2O)n1 [Compound 9]
CC50 at 72 h [1]: > 33.3 µM
pEC50 [2]: > 6.00

Cn1cc(C#Cc2ccc(NC(=O)[C@@H]3COCCN3C(=O)[C@H](NC(=O)c3ccc(C#N)cc3)c3ccccc3)cc2)c(-c2cc(Cl)ccc2O)n1 [Compound 5]
CC50 at 72 h [1]: > 33.3 µM
pEC50 [2]: > 6.00

Cn1cc(C#Cc2ccc(NC(=O)[C@@H]3COCCN3C(=O)[C@H](NC(=O)N3CCC3)c3ccccc3)cc2)c(-c2cc(Cl)ccc2O)n1 [Compound 10]
CC50 at 72 h [1]: > 33.3 µM
pEC50 [2]: > 6.00

CC(C)n1cc(C#Cc2ccc(NC(=O)[C@@H]3COCCN3C(=O)[C@H](NC(=O)NC(C)(C)C)c3ccccc3)cc2)c(-c2cc(Cl)ccc2O)n1 [Compound 11]
CC50 at 72 h [1]: > 33.3 µM
pEC50 [2]: > 6.00

Cn1cc(C#Cc2ccc(NC(=O)[C@@H]3COCCN3C(=O)[C@H](NC(=O)OC(C)(C)C)c3ccccc3)cc2)c(-c2cc(Cl)ccc2O)n1 [Example 51]
CC50 at 72 h [3]: 10 to 100 µM
pEC50 [4]: > 6.00
pEC50 [5]: > 6.00

Cc1ccc(O)c(-c2nn(C)cc2C#Cc2ccc(NC(=O)[C@@H]3CCCCN3C(=O)[C@H](NC(=O)OC(C)(C)C)c3ccccc3)cc2)c1 [Compound 16]
CC50 at 72 h [3]: > 100 µM
pEC50 [4]: > 6.00
pEC50 [5]: > 6.00

Cc1ccc(O)c(-c2nn(C)cc2C#Cc2ccc(NC(=O)[C@@H]3CCCCN3C(=O)[C@@H](Cc3ccccc3)NC(=O)OC(C)(C)C)cc2)c1 [Compound 15]
CC50 at 72 h [3]: > 100 µM
pEC50 [4]: > 6.00
pEC50 [5]: > 6.00

N#CCCn1cc(C#Cc2ccc(NC(=O)[C@@H]3COCCN3C(=O)[C@H](NC(=O)c3cnccn3)c3ccccc3)cc2)c(-c2cc(Cl)ccc2O)n1 [Compound 2]
CC50 at 72 h [1]: > 33.3 µM
pEC50 [2]: > 6.00

CC(C)(C)OC(=O)N[C@@H](C(=O)N1CCCC[C@H]1C(=O)Nc1ccc(C#Cc2c[nH]nc2-c2cc(Cl)ccc2O)cc1)c1ccccc1 [Compound 38]
CC50 at 72 h [3]: > 100 µM
pEC50 [4]: > 6.00
pEC50 [5]: > 6.00

CN1CCN(C(=O)N[C@@H](C(=O)N2CCOC[C@H]2C(=O)Nc2ccc(C#Cc3cn(CCC#N)nc3-c3cc(Cl)ccc3O)cc2)c2ccccc2)CC1 [Compound 16]
CC50 at 72 h [1]: 1 to 10 µM
pEC50 [2]: > 6.00

Cn1cc(C#Cc2ccc(NC(=O)[C@@H]3COCCN3C(=O)[C@H](NC(=O)OC(C)(C)C)c3ccccc3)cc2)c(-c2cc(F)ccc2O)n1 [Example 47]
CC50 at 72 h [3]: > 100 µM
pEC50 [4]: > 6.00
pEC50 [5]: > 6.00

Cn1cc(C#Cc2ccc(NC(=O)[C@@H]3COCCN3C(=O)[C@H](NC(=O)N3CCOCC3)c3ccccc3)cc2)c(-c2cc(Cl)ccc2O)n1 [Example 17]
CC50 at 72 h [1]: > 33.3 µM
pEC50 ([2]; GETYPE1A): > 6.00

Cc1ccc(O)c(-c2nn(C)cc2C#Cc2ccc(NC(=O)[C@@H]3COCCN3C(=O)[C@H](NC(=O)N3CCOCC3)c3ccccc3)cc2)c1 [Example 19]
CC50 at 72 h [1]: > 33.3 µM
pEC50 [2]: > 6.00

N#CCCn1cc(C#Cc2ccc(NC(=O)[C@@H]3COCCN3C(=O)[C@H](NC(=O)N3CCOCC3)c3ccccc3)cc2)c(-c2cc(Cl)ccc2O)n1 [Compound 4]
CC50 at 72 h [1]: > 33.3 µM
pEC50 [2]: > 6.00

C[C@@H]1CN(C(=O)N[C@@H](C(=O)N2CCOC[C@H]2C(=O)Nc2ccc(C#Cc3cn(CCC#N)nc3-c3cc(Cl)ccc3O)cc2)c2ccccc2)C[C@H](C)O1 [Compound 8]
CC50 at 72 h [1]: > 33.3 µM
pEC50 [2]: > 6.00

Cc1ccc(O)c(-c2nn(C)cc2C#Cc2ccc(NC(=O)C3CCCCN3C(=O)[C@H](CCc3ccccc3)NC(=O)OC(C)(C)C)cc2)c1 (stereo partly shown) [Compound 7A]
CC50 at 72 h [3]: 10 to 100 µM
pEC50 ([4]; GETYPE1B): > 6.00
pEC50 ([5]; GETYPE1B): > 6.00

Cc1ccc(O)c(-c2nn(C)cc2C#Cc2ccc(NC(=O)[C@H]3CS(=O)(=O)CCN3C(=O)[C@H](NC(=O)OC(C)(C)C)c3ccccc3)cc2)c1 [Compound 46 (Table 1)]
CC50 at 72 h [3]: > 100 µM
pEC50 [4]: > 6.00
pEC50 [5]: > 6.00

Cn1cc(C#Cc2ccc(NC(=O)[C@@H]3COCCN3C(=O)[C@H](NS(=O)(=O)C3CC3)c3ccccc3)cc2)c(-c2cc(Cl)ccc2O)n1 [Compound 55]
CC50 at 72 h [3]: 10 to 100 µM
pEC50 [4]: > 6.00
pEC50 [5]: > 6.00

N#CCCn1cc(C#Cc2ccc(NC(=O)[C@@H]3COCCN3C(=O)[C@H](NC(=O)N3CCNC(=O)C3)c3ccccc3)cc2)c(-c2cc(Cl)ccc2O)n1 [Example 20]
CC50 at 72 h [1]: > 33.3 µM
pEC50 [2]: > 6.00

Cn1cc(C#Cc2ccc(NC(=O)[C@@H]3CCCCN3C(=O)[C@H](NC(=O)OC(C)(C)C)c3ccccc3)cc2)c(-c2cc(Br)ccc2O)n1 [Compound 22]
CC50 at 72 h [3]: 10 to 100 µM
pEC50 [4]: > 6.00
pEC50 [5]: > 6.00

N#CCCn1cc(C#Cc2ccc(NC(=O)[C@@H]3COCCN3C(=O)[C@H](NC(=O)NC3CC3)c3ccccc3)cc2)c(-c2cc(Cl)ccc2O)n1 [Compound 3]
CC50 at 72 h [1]: > 33.3 µM
pEC50 [2]: > 6.00

Cc1ccc(O)c(-c2nn(C)cc2C#Cc2ccc(NC(=O)[C@H]3CCCCN3C(=O)[C@H](Cc3ccccc3)NC(=O)OC(C)(C)C)cc2)c1 [Compound 2]
CC50 at 72 h [3]: > 100 µM
pEC50 [4]: > 6.00
pEC50 [5]: > 6.00

COCC(=O)N[C@@H](C(=O)N1CCOC[C@H]1C(=O)Nc1ccc(C#Cc2cn(C)nc2-c2cc(Cl)ccc2O)cc1)c1ccccc1 [Compound 12]
CC50 at 72 h [1]: > 33.3 µM
pEC50 [2]: > 6.00

Cc1ccc(O)c(-c2nn(C)cc2C#Cc2ccc(NC(=O)C3CCCCN3C(=O)[C@H](Cc3ccccc3)NC(=O)NC(C)(C)C)cc2)c1 (stereo partly shown) [Example 18]
CC50 at 72 h [3]: > 100 µM
pEC50 [4]: > 6.00
pEC50 [5]: > 6.00

Cc1ccc(O)c(-c2nn(C)cc2C#Cc2ccc(NC(=O)C3CCCCN3C(=O)[C@H](Cc3ccccc3)N(C)C(=O)OC(C)(C)C)cc2)c1 (stereo partly shown) [Example 19]
CC50 at 72 h [3]: 10 to 100 µM
pEC50 [4]: > 6.00
pEC50 [5]: > 6.00

Cc1ccc(O)c(-c2nn(C)cc2C#Cc2ccc(NC(=O)[C@@H]3CS(=O)(=O)CCN3C(=O)[C@H](NC(=O)OC(C)(C)C)c3ccccc3)cc2)c1 [Compound 45]
CC50 at 72 h [3]: > 100 µM
pEC50 [4]: > 6.00
pEC50 [5]: > 6.00

N#CCCn1cc(C#Cc2ccc(NC(=O)[C@@H]3COCCN3C(=O)[C@H](NC(=O)N3CCC(=O)CC3)c3ccccc3)cc2)c(-c2cc(Cl)ccc2O)n1 [Compound 7]
CC50 at 72 h [1]: > 33.3 µM
pEC50 [2]: > 6.00

CC(C)(C)OC(=O)N[C@@H](C(=O)N1CCCC[C@H]1C(=O)Nc1ccc(C#Cc2cn(CCO)nc2-c2cc(Cl)ccc2O)cc1)c1ccccc1 [Compound 39]
CC50 at 72 h [3]: 10 to 100 µM
pEC50 [4]: > 6.00
pEC50 [5]: > 6.00

Cc1ccc(O)c(-c2nn(C)cc2C#Cc2ccc(NC(=O)C3CCCCN3C(=O)[C@H](Cc3ccccc3)NC(=O)C3CCCCC3)cc2)c1 (stereo partly shown) [Compound 10]
CC50 at 72 h [3]: 10 to 100 µM
pEC50 [4]: > 6.00
pEC50 [5]: > 6.00

Source: patent US7923004B2 (priority 2006, dated 2011)
